Like-named read-outs stand apart in the source and are kept apart here.
Conditions: 0.03 mCi/ml, excipient 1 mg/ml in sodium acetate-acetic acid buffer pH 5.80, 25° C.
Protocol: After drying in an incubator at a temperature of 38° C., the radio-TLC conversion was analyzed at different time points with a radio-TLC reader (Eckert & Ziegler AR-2000) set at High Voltage=1000 (to ensure alpha detection) until the ratio between labeled product and the free Ac225 ion no longer change (typically after 6-8 hours of TLC separation to ensure equilibrium between Ac225 and daughter nuclides).
The formulations were buffered with sodium acetate-acetic acid 0.4 M solution to pH 5.80 (±0.10). […] Sodium L-Ascorbate/L-Ascorbic acid buffer was adjusted to pH 5.80 (±0.10). Water for Injection (WFI) with the same dilution without any excipient is used as the control formulation. The mixture was kept at room temperature (25° C.).

Compound	Percentage of ^225Ac present in [^225Ac]Ac-DOTA-TATE (24 hours after mixing) [%]	Percentage of ^225Ac present in [^225Ac]Ac-DOTA-TATE (48 hours after mixing) [%]
O=C(O)CCCC[C@@H]1CCSS1 (racemic) [Lipoic Acid]	92.97	87.93
CCO [10% EtOH, EtOH]	96.35	92.16
O=C(O)CC(O)(CC(=O)O)C(=O)O [Citric Acid]	90.20	82.18
N[C@H](CS)C(=O)O [D-Cysteine]	93.45	87.66
O=C(O)CN(CCN(CC(=O)O)CC(=O)O)CCN(CC(=O)O)CC(=O)O [DTPA, Diethylenetriaminepentaacetic acid]	95.77	91.38
N[C@@H](CCC(=O)N[C@@H](CS)C(=O)NCC(=O)O)C(=O)O [L-Glutathione]	91.18	85.56
NCCCC[C@H](N)C(=O)O [L-Lysine]	95.45	89.52
CSCC[C@H](N)C(=O)O [L-Methionine]	93.39	89.58
CC(=O)N[C@@H](CS)C(=O)O [N-Acetyl-L-Cysteine]	91.19	87.41
Oc1ccccc1 [Phenol]	–	87.88
O=C(O)c1ccccc1O [Salicylic Acid]	93.08	87.65
O=C1O[C@H]([C@@H](O)CO)C([O-])=C1O.[Na+] [Sodium Ascorbate, pH 5.8, Sodium Ascorbate]	–	92.21
O=S([O-])O.[Na+] [Sodium Bisulfite]	0	–

Reference: patent US11819556B2, “Stabilized compositions of radionuclides and uses thereof” (RayzeBio, Inc., priority 2021, dated 2023)
